Results taken from US20250163104A1, “MACROCYCLIC IMMUNOMODULATORS” (priority 2021, published 2025).
*1 amine or outer side, *2 acyl side, *3 side chain or, on linkers, in order; H or OH if unused. Where a SMILES comes first, the peptide text is derived from it. Bridges are numbered along the chain shown (N, C = ends). [ ]: non-standard residue; d: D form. The star is where a group is joined. ξ: configuration not given here. Phe(4-CONH2) = NC(=O)c1ccc(C[C@H](N)C(=O)O)cc1; Phe(4-COOH) = N[C@@H](Cc1ccc(C(=O)O)cc1)C(=O)O; Bip = N[C@@H](Cc1ccc(-c2ccccc2)cc1)C(=O)O; Phe(3-Me) = Cc1cccc(C[C@H](N)C(=O)O)c1; Ethylenediamine = C(CN[*:2])N[*:1]; Val(3-OH) = CC(C)(O)[C@H](N)C(=O)O; 4Pal = N[C@@H](Cc1ccncc1)C(=O)O; 3Thi = N[C@@H](Cc1ccsc1)C(=O)O; Cha = N[C@@H](CC1CCCCC1)C(=O)O; Thr(3ξ) = CC(O)[C@H](N)C(=O)O; Carboxymethyl = O=C(O)C*; Orn = NCCC[C@H](N)C(=O)O; Dab = NCC[C@H](N)C(=O)O; Dap = NC[C@H](N)C(=O)O

Molecular target: T1, human PD-1 / PD-L1-Ig binding on Jurkat cell line over-expressing human PD-1 (Jurkat-PD-1) (Homo sapiens, UniProt Q15116)
T1 construct: expressed in transfected cells; host or cells: Jurkat
T1 sequence (Q15116 25-288): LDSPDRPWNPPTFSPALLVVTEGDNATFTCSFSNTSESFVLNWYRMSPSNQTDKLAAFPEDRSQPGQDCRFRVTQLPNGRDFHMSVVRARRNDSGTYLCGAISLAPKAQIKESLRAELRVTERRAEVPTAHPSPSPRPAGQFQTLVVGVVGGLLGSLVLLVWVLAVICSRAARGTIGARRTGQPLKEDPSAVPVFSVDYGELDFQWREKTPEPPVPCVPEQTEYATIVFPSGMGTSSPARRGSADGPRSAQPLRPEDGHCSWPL
Experiment: Jurkat-PD-1 Cell Binding High-Content Screening Assay (CBA)
Type: cell-based
Settings: Jurkat-PD-1 cells, PE-labeled PD-L1-Ig 20 nM final; read-out: Jurkat HPD1_PDL1 IC50
Summary of the method: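 Jurkat cells over-expressing human PD-1, in DMEM/10% FCS, pre-incubated with compound 2 h at 37° C. PE-labeled human PD-L1-Ig (20 nM final) added for 1 h; cells fixed in paraformaldehyde with Hoechst 33342 nuclear stain, washed, and bound fluorescence quantified by high-content imaging.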

| IC50 | Structure (SMILES) |
| --- | --- |
| 0.0296 µM | Cc1cccc(C[C@@H]2NC(=O)[C@H](CC(=O)O)NC(=O)[C@H](Cc3ccc(O)cc3)NC(=O)[C@H](Cc3cnc[nH]3)NC(=O)CSC[C@@H](C(=O)N[C@H](C)C(N)=O)NC(=O)[C@H](CO)NC(=O)[C@H](C(C)(C)O)NC(=O)[C@H](CC3CCCCC3)NC(=O)[C@H](CCN)NC(=O)[C@@H](CC(C)C)NC(=O)[C@H](CCCN)NC(=O)[C@H](Cc3ccc(OCC(=O)O)cc3)NC(=O)[C@H](Cc3ccc(-c4ccccc4)cc3)NC(=O)[C@H](Cc3ccc(OCC(=O)O)cc3)NC2=O)c1 [Compound 2652] ({CH2CO}-HYD[Phe(3-Me)]Y(Carboxymethyl)[Bip]Y(Carboxymethyl)[Orn][dL][Dab][Cha][Val(3-OH)]SC[dA]-NH2; thioether N-14) |
| 0.0076 µM | Cc1cccc(C[C@@H]2NC(=O)[C@H](CC(=O)O)NC(=O)[C@H](Cc3ccc(OCC(=O)O)cc3)NC(=O)[C@H](CCN)NC(=O)CSC[C@@H](C(=O)N[C@@H](CCN)C(N)=O)NC(=O)[C@H](CO)NC(=O)[C@H](C(C)(C)O)NC(=O)[C@H](CC3CCCCC3)NC(=O)[C@H](Cc3cnc[nH]3)NC(=O)[C@@H](CC(C)C)NC(=O)[C@H](CCCN)NC(=O)[C@H](Cc3ccc(OCC(=O)O)cc3)NC(=O)[C@H](Cc3ccc(-c4ccccc4)cc3)NC(=O)[C@H](Cc3ccc(OCC(=O)O)cc3)NC2=O)c1 [Compound 2653] ({CH2CO}-[Dab]Y(Carboxymethyl)D[Phe(3-Me)]Y(Carboxymethyl)[Bip]Y(Carboxymethyl)[Orn][dL]H[Cha][Val(3-OH)]SC[Dab]-NH2; thioether N-14) |
| 0.0064 µM | Cc1cccc(C[C@@H]2NC(=O)[C@H](CC(=O)O)NC(=O)[C@H](Cc3ccc(OCC(=O)O)cc3)NC(=O)[C@H](Cc3ccsc3)NC(=O)CSC[C@@H](C(=O)N[C@H](C)C(N)=O)NC(=O)[C@H](CO)NC(=O)[C@H](C(C)(C)O)NC(=O)[C@H](CC3CCCCC3)NC(=O)[C@H](CCN)NC(=O)[C@@H](CC(C)C)NC(=O)[C@H](CCCN)NC(=O)[C@H](Cc3ccc(OCC(=O)O)cc3)NC(=O)[C@H](Cc3ccc(-c4ccccc4)cc3)NC(=O)[C@H](Cc3ccc(OCC(=O)O)cc3)NC2=O)c1 [Compound 2654] ({CH2CO}-[3Thi]Y(Carboxymethyl)D[Phe(3-Me)]Y(Carboxymethyl)[Bip]Y(Carboxymethyl)[Orn][dL][Dab][Cha][Val(3-OH)]SC[dA]-NH2; thioether N-14) |
| 0.11 µM | Cc1cccc(C[C@@H]2NC(=O)[C@H](CC(=O)O)NC(=O)[C@H](Cc3ccc(C(=O)O)cc3)NC(=O)[C@H](Cc3ccncc3)NC(=O)CSC[C@@H](C(=O)N[C@H](CC(N)=O)C(N)=O)NC(=O)[C@H](CO)NC(=O)[C@H](C(C)(C)O)NC(=O)[C@H](CC3CCCCC3)NC(=O)[C@H](CCN)NC(=O)[C@@H](CC(C)C)NC(=O)[C@H](CCCN)NC(=O)[C@H](Cc3ccc(C(=O)O)cc3)NC(=O)[C@H](Cc3ccc(-c4ccccc4)cc3)NC(=O)[C@H](Cc3ccc(OCC(=O)O)cc3)NC2=O)c1 [Compound 2655] ({CH2CO}-[4Pal][Phe(4-COOH)]D[Phe(3-Me)]Y(Carboxymethyl)[Bip][Phe(4-COOH)][Orn][dL][Dab][Cha][Val(3-OH)]SC[dN]-NH2; thioether N-14) |
| 0.025 µM | Cc1cccc(C[C@@H]2NC(=O)[C@H](CC(=O)O)NC(=O)[C@H](Cc3ccc(C(=O)O)cc3)NC(=O)[C@H](Cc3ccsc3)NC(=O)CSC[C@@H](C(=O)N[C@H](CC(N)=O)C(N)=O)NC(=O)[C@H](CO)NC(=O)[C@H](C(C)(C)O)NC(=O)[C@H](CC3CCCCC3)NC(=O)[C@H](CCN)NC(=O)[C@@H](CC(C)C)NC(=O)[C@H](CCCN)NC(=O)[C@H](Cc3ccc(C(=O)O)cc3)NC(=O)[C@H](Cc3ccc(-c4ccccc4)cc3)NC(=O)[C@H](Cc3ccc(OCC(=O)O)cc3)NC2=O)c1 [Compound 2656] ({CH2CO}-[3Thi][Phe(4-COOH)]D[Phe(3-Me)]Y(Carboxymethyl)[Bip][Phe(4-COOH)][Orn][dL][Dab][Cha][Val(3-OH)]SC[dN]-NH2; thioether N-14) |
| 0.0089 µM | Cc1cccc(C[C@@H]2NC(=O)[C@H](CC(=O)O)NC(=O)[C@H](Cc3ccc(OCC(=O)O)cc3)NC(=O)[C@H](Cc3ccncc3)NC(=O)CSC[C@@H](C(=O)N[C@H](CC(N)=O)C(N)=O)NC(=O)[C@H](CO)NC(=O)[C@H](C(C)(C)O)NC(=O)[C@H](CC3CCCCC3)NC(=O)[C@H](CCN)NC(=O)[C@@H](CC(C)C)NC(=O)[C@H](CCCN)NC(=O)[C@H](Cc3ccc(O)cc3)NC(=O)[C@H](Cc3ccc(-c4ccccc4)cc3)NC(=O)[C@H](Cc3ccc(C(N)=O)cc3)NC2=O)c1 [Compound 2657] ({CH2CO}-[4Pal]Y(Carboxymethyl)D[Phe(3-Me)][Phe(4-CONH2)][Bip]Y[Orn][dL][Dab][Cha][Val(3-OH)]SC[dN]-NH2; thioether N-14) |
| 0.0259 µM | Cc1cccc(C[C@@H]2NC(=O)[C@H](CC(=O)O)NC(=O)[C@H](Cc3ccc(OCC(=O)O)cc3)NC(=O)[C@H](C(C)O)NC(=O)CSC[C@@H](C(=O)N[C@H](CC(N)=O)C(N)=O)NC(=O)[C@H](CO)NC(=O)[C@H](C(C)(C)O)NC(=O)[C@H](CC3CCCCC3)NC(=O)[C@H](CCN)NC(=O)[C@@H](CC(C)C)NC(=O)[C@H](CCCN)NC(=O)[C@H](Cc3ccc(O)cc3)NC(=O)[C@H](Cc3ccc(-c4ccccc4)cc3)NC(=O)[C@H](Cc3ccc(C(N)=O)cc3)NC2=O)c1 (stereo partly drawn) [Compound 2658] ({CH2CO}-[Thr(3ξ)]Y(Carboxymethyl)D[Phe(3-Me)][Phe(4-CONH2)][Bip]Y[Orn][dL][Dab][Cha][Val(3-OH)]SC[dN]-NH2; thioether N-14) |
| 0.0118 µM | CC(C)C[C@H]1NC(=O)[C@H](CCCN)NC(=O)[C@H](C(C)C)NC(=O)[C@H](Cc2ccc(-c3ccccc3)cc2)NC(=O)[C@H](C(C)C)NC(=O)[C@H](Cc2c[nH]c3ccccc23)NC(=O)[C@H](CC(=O)O)NC(=O)[C@H](Cc2ccc(OCC(=O)O)cc2)NC(=O)[C@H](Cc2cnc[nH]2)NC(=O)CSC[C@@H](C(=O)N[C@H](C)C(N)=O)NC(=O)[C@H](C(C)O)NC(=O)[C@H](C(C)(C)O)NC(=O)[C@H](CC2CCCCC2)NC(=O)[C@H](CCN)NC1=O (stereo partly drawn) [Compound 2659] ({CH2CO}-HY(Carboxymethyl)DWV[Bip]V[Orn][dL][Dab][Cha][Val(3-OH)][Thr(3ξ)]C[dA]-NH2; thioether N-14) |
| 0.0039 µM | Cc1cccc(C[C@@H]2NC(=O)[C@H](CC(=O)O)NC(=O)[C@H](Cc3ccc(C(=O)O)cc3)NC(=O)[C@H](Cc3ccsc3)NC(=O)CSC[C@@H](C(=O)N[C@@H](CCN)C(N)=O)NC(=O)[C@H](CO)NC(=O)[C@H](C(C)(C)O)NC(=O)[C@H](CC3CCCCC3)NC(=O)[C@H](CCN)NC(=O)[C@@H](CC(C)C)NC(=O)[C@H](CCCN)NC(=O)[C@H](Cc3ccc(C(=O)O)cc3)NC(=O)[C@H](Cc3ccc(-c4ccccc4)cc3)NC(=O)[C@H](Cc3ccc(OCC(=O)O)cc3)NC2=O)c1 [Compound 2660] ({CH2CO}-[3Thi][Phe(4-COOH)]D[Phe(3-Me)]Y(Carboxymethyl)[Bip][Phe(4-COOH)][Orn][dL][Dab][Cha][Val(3-OH)]SC[Dab]-NH2; thioether N-14) |
| 0.201 µM | Cc1cccc(C[C@@H]2NC(=O)[C@H](CC(=O)O)NC(=O)[C@H](Cc3ccc(C(=O)O)cc3)NC(=O)[C@H](Cc3ccncc3)NC(=O)CSC[C@@H](C(=O)N[C@@H](CCN)C(N)=O)NC(=O)[C@H](CO)NC(=O)[C@H](C(C)(C)O)NC(=O)[C@H](CC3CCCCC3)NC(=O)[C@H](CCN)NC(=O)[C@@H](CC(C)C)NC(=O)[C@H](CCCN)NC(=O)[C@H](Cc3ccc(C(=O)O)cc3)NC(=O)[C@H](Cc3ccc(-c4ccccc4)cc3)NC(=O)[C@H](Cc3ccc(OCC(=O)O)cc3)NC2=O)c1 [Compound 2661] ({CH2CO}-[4Pal][Phe(4-COOH)]D[Phe(3-Me)]Y(Carboxymethyl)[Bip][Phe(4-COOH)][Orn][dL][Dab][Cha][Val(3-OH)]SC[Dab]-NH2; thioether N-14) |
| 0.0083 µM | CCC(C)[C@@H]1NC(=O)[C@H](Cc2ccc(-c3ccccc3)cc2)NC(=O)[C@H](C(C)C)NC(=O)[C@H](Cc2c[nH]c3ccccc23)NC(=O)[C@H](CC(=O)O)NC(=O)[C@H](Cc2ccc(OCC(=O)O)cc2)NC(=O)[C@H](Cc2cc[nH]c2)NC(=O)CSC[C@@H](C(=O)N[C@H](C)C(N)=O)NC(=O)[C@H](C(C)O)NC(=O)[C@H](C(C)(C)O)NC(=O)[C@H](CC2CCCCC2)NC(=O)[C@H](CCN)NC(=O)[C@@H](CC(C)C)NC(=O)[C@H](CCCN)NC1=O (stereo partly shown) [Compound 2662] |
| 0.0116 µM | Cc1cccc(C[C@@H]2NC(=O)[C@H](CC(=O)O)NC(=O)[C@H](Cc3ccc(OCC(=O)O)cc3)NC(=O)[C@H](C(C)O)NC(=O)CSC[C@@H](C(=O)N[C@@H](CO)C(=O)NCCN)NC(=O)[C@H](C(C)O)NC(=O)[C@H](C(C)(C)O)NC(=O)[C@H](CC3CCCCC3)NC(=O)[C@H](CCN)NC(=O)[C@@H](CC(C)C)NC(=O)[C@H](CCCN)NC(=O)[C@H](Cc3ccc(O)cc3)NC(=O)[C@H](Cc3ccc(-c4ccccc4)cc3)NC(=O)[C@H](Cc3ccc(C(N)=O)cc3)NC2=O)c1 (stereo partly drawn) [Compound 2663] ({CH2CO}-[Thr(3ξ)]Y(Carboxymethyl)D[Phe(3-Me)][Phe(4-CONH2)][Bip]Y[Orn][dL][Dab][Cha][Val(3-OH)][Thr(3ξ)]CS-Ethylenediamine; thioether N-14) |
| 0.0152 µM | Cc1cccc(C[C@@H]2NC(=O)[C@H](CC(=O)O)NC(=O)[C@H](Cc3ccc(OCC(=O)O)cc3)NC(=O)[C@H](C(C)O)NC(=O)CSC[C@@H](C(=O)N[C@@H](CN)C(=O)NCCN)NC(=O)[C@H](C(C)O)NC(=O)[C@H](C(C)(C)O)NC(=O)[C@H](CC3CCCCC3)NC(=O)[C@H](CCN)NC(=O)[C@@H](CC(C)C)NC(=O)[C@H](CCCN)NC(=O)[C@H](Cc3ccc(O)cc3)NC(=O)[C@H](Cc3ccc(-c4ccccc4)cc3)NC(=O)[C@H](Cc3ccc(C(N)=O)cc3)NC2=O)c1 (stereo partly drawn) [Compound 2664] ({CH2CO}-[Thr(3ξ)]Y(Carboxymethyl)D[Phe(3-Me)][Phe(4-CONH2)][Bip]Y[Orn][dL][Dab][Cha][Val(3-OH)][Thr(3ξ)]C[Dap]-Ethylenediamine; thioether N-14) |
